Experiment: in vitro
Settings: human, hek293t cells

For CC(C)NC(=O)C(C#N)=Cc1ccc(Cl)c([N+](=O)[O-])c1 [8-J08, 3-(4-chloro-3-nitrophenyl)-2-cyano-N-(propan-2-yl)prop-2-enamide], which viability at 48 h, 25 µM is on record?
The viability at 48 h, 25 µM was 0.544%.

Which viability at 48 h, 25 µM does the source give for N#CC(=Cc1cccc2ccccc12)C(=O)NCc1ccc(Cl)cc1 [8-J09, N-[(4-chlorophenyl)methyl]-2-cyano-3-(naphthalen-1-yl)prop-2-enamide] here?
The viability at 48 h, 25 µM was 66%.

For Cn1cc(C=C(C#N)C(=O)NCc2ccccc2)cn1 [8-J10, N-benzyl-2-cyano-3-(1-methyl-1H-pyrazol-4-yl)prop-2-enamide], which viability at 48 h, 25 µM is on record?
The viability at 48 h, 25 µM was 111%.

Which viability at 48 h, 25 µM does the source give for CC(NC(=O)C(C#N)=Cc1ccc(-c2ccccc2)cc1)c1ccccc1 (centres unmarked) [8-J11, 3-{[1,1'-biphenyl]-4-yl}-2-cyano-N-(1-phenylethyl)prop-2-enamide] here?
The viability at 48 h, 25 µM was 26.5%.

With COc1ccc(C=C(C#N)C(=O)NCc2ccco2)cc1 [8-J12, 2-cyano-N-[(furan-2-yl)methyl]-3-(4-methoxyphenyl)prop-2-enamide] as the compound, how does the viability at 48 h, 25 µM read?
Its viability at 48 h, 25 µM is 112%.

For N#CC(=Cc1cccc(Cl)c1)C(=O)Nc1ccccc1C(F)(F)F [8-J13, 3-(3-chlorophenyl)-2-cyano-N-[2-(trifluoromethyl)phenyl]prop-2-enamide], which viability at 48 h, 25 µM is on record?
Its viability at 48 h, 25 µM is 101%.

For N#CC(=Cc1ccccc1)C(=O)Nc1nnn[nH]1 [8-J14, 2-cyano-3-phenyl-N-(1H-1,2,3,4-tetrazol-5-yl)prop-2-enamide], which viability at 48 h, 25 µM is on record?
The viability at 48 h, 25 µM was 111%.

With CCC1SC(=C(C#N)C(N)=O)N(c2ccc(C)cc2)C1=O (centres unmarked) [8-J15, 2-cyano-2-[5-ethyl-3-(4-methylphenyl)-4-oxo-1,3-thiazolidin-2-ylidene]acetamide] as the compound, how does the viability at 48 h, 25 µM read?
Its viability at 48 h, 25 µM is 117%.

For Cc1cc(C=C(C#N)C(=O)NCc2ccco2)cc(C)c1O [8-J16, 2-cyano-N-[(furan-2-yl)methyl]-3-(4-hydroxy-3,5-dimethylphenyl)prop-2-enamide], which viability at 48 h, 25 µM is on record?
The viability at 48 h, 25 µM was 114%.

For Cc1ccc(NC(=O)C(C#N)=Cc2cccc([N+](=O)[O-])c2)cc1 [8-J17, 2-cyano-N-(4-methylphenyl)-3-(3-nitrophenyl)prop-2-enamide], which viability at 48 h, 25 µM is on record?
The viability at 48 h, 25 µM was 88.1%.

With COc1ccc(C=C(C#N)C(=O)NC(C)c2ccccc2)cc1O (centres unmarked) [8-J18, 2-cyano-3-(3-hydroxy-4-methoxyphenyl)-N-(1-phenylethyl)prop-2-enamide] as the compound, how does the viability at 48 h, 25 µM read?
The viability at 48 h, 25 µM was 93.3%.

With COc1ccc(C=C(C#N)C(=O)Nc2ccccc2OC)cc1O [8-J19, 2-cyano-3-(3-hydroxy-4-methoxyphenyl)-N-(2-methoxyphenyl)prop-2-enamide] as the compound, how does the viability at 48 h, 25 µM read?
The viability at 48 h, 25 µM was 107%.

For N#CC(=Cc1ccc(OC(F)F)cc1)C(=O)N1CCCCC1 [8-J20, 3-[4-(difluoromethoxy)phenyl]-2-(piperidine-1-carbonyl)prop-2-enenitrile], which viability at 48 h, 25 µM is on record?
The viability at 48 h, 25 µM was 82.8%.

With N#CC(=Cc1cccc(Cl)c1Cl)C(N)=O [8-J21, 2-cyano-3-(2,3-dichlorophenyl)prop-2-enamide] as the compound, how does the viability at 48 h, 25 µM read?
Its viability at 48 h, 25 µM is 121%.

Which viability at 48 h, 25 µM does the source give for N#CC(=Cc1cccc(F)c1)C(=O)NCCc1ccccc1 [8-J22, 2-cyano-3-(3-fluorophenyl)-N-(2-phenylethyl)prop-2-enamide] here?
The viability at 48 h, 25 µM was 103%.

With COc1ccc(C=C(C#N)C(=O)Nc2ccc(Cl)cc2Cl)cc1 [8-K03, 2-cyano-N-(2,4-dichlorophenyl)-3-(4-methoxyphenyl)prop-2-enamide] as the compound, how does the viability at 48 h, 25 µM read?
Its viability at 48 h, 25 µM is 104%.

For COc1cccc(NC(=O)C(C#N)=Cc2csnn2)c1 [8-K04, 2-cyano-N-(3-methoxyphenyl)-3-(1,2,3-thiadiazol-4-yl)prop-2-enamide], which viability at 48 h, 25 µM is on record?
Its viability at 48 h, 25 µM is 80.5%.

For N#CC(=Cc1ccc(Sc2ccccc2)o1)C(=O)Nc1ccccc1 [8-K05, 2-cyano-N-phenyl-3-[5-(phenylsulfanyl)furan-2-yl]prop-2-enamide], which viability at 48 h, 25 µM is on record?
The viability at 48 h, 25 µM was 70%.

With N#CC(=Cc1ccc(F)cc1)C(=O)NCCc1cccc(Cl)c1 [8-K06, N-[2-(3-chlorophenyl)ethyl]-2-cyano-3-(4-fluorophenyl)prop-2-enamide] as the compound, how does the viability at 48 h, 25 µM read?
Its viability at 48 h, 25 µM is 49.6%.

For Cc1cccc(C=C(C#N)C(=O)NC2CCCCC2)c1 [8-K07, 2-cyano-N-cyclohexyl-3-(3-methylphenyl)prop-2-enamide], which viability at 48 h, 25 µM is on record?
Its viability at 48 h, 25 µM is 45%.

With CCCCNC(=O)C(C#N)=Cc1cc(F)ccc1F [8-K08, N-butyl-2-cyano-3-(2,5-difluorophenyl)prop-2-enamide] as the compound, how does the viability at 48 h, 25 µM read?
Its viability at 48 h, 25 µM is 39.8%.

Which viability at 48 h, 25 µM does the source give for N#CC(=Cc1ccccc1)C(=O)Nc1nncs1 [8-K09, 2-cyano-3-phenyl-N-(1,3,4-thiadiazol-2-yl)prop-2-enamide] here?
Its viability at 48 h, 25 µM is 94.2%.

Which viability at 48 h, 25 µM does the source give for COc1cc(Cl)c(C)cc1NC(=O)C(C#N)=Cc1c(C)n[nH]c1C [8-K10, N-(4-chloro-2-methoxy-5-methylphenyl)-2-cyano-3-(3,5-dimethyl-1H-pyrazol-4-yl)prop-2-enamide] here?
The viability at 48 h, 25 µM was 83.6%.

For N#CC(=Cc1cccc2ccccc12)C(=O)Nc1ccccc1Cl [8-K11, N-(2-chlorophenyl)-2-cyano-3-(naphthalen-1-yl)prop-2-enamide], which viability at 48 h, 25 µM is on record?
Its viability at 48 h, 25 µM is 80.5%.

With N#CC(=Cc1cccc2c1OCO2)C(=O)Nc1cccc2ccccc12 [8-K12, 3-(1,3-dioxaindan-4-yl)-2-cyano-N-(naphthalen-1-yl)prop-2-enamide] as the compound, how does the viability at 48 h, 25 µM read?
The viability at 48 h, 25 µM was 63.4%.

With Cc1ccc(NC(=O)C(C#N)=Cc2ccc(C)s2)cc1 [8-K13, 2-cyano-N-(4-methylphenyl)-3-(5-methylthiophen-2-yl)prop-2-enamide] as the compound, how does the viability at 48 h, 25 µM read?
Its viability at 48 h, 25 µM is 77%.

Which viability at 48 h, 25 µM does the source give for Cc1cc(C=C(C#N)C(=O)Nc2ccncc2)c(C)n1C1CC1 [8-K14, 2-cyano-3-(1-cyclopropyl-2,5-dimethyl-1H-pyrrol-3-yl)-N-(pyridin-4-yl)prop-2-enamide] here?
Its viability at 48 h, 25 µM is 71.6%.

For Cc1ccccc1NC(=O)C(C#N)=Cc1ccsc1 [8-K15, 2-cyano-N-(2-methylphenyl)-3-(thiophen-3-yl)prop-2-enamide], which viability at 48 h, 25 µM is on record?
Its viability at 48 h, 25 µM is 77.5%.

For COc1cc(C=C(C#N)C(=O)Nc2ccc(Cl)cc2)cc(OC)c1 [8-K16, N-(4-chlorophenyl)-2-cyano-3-(3,5-dimethoxyphenyl)prop-2-enamide], which viability at 48 h, 25 µM is on record?
The viability at 48 h, 25 µM was 81.7%.

Which viability at 48 h, 25 µM does the source give for CN1C(=O)C(=C(C#N)C(=O)NCc2ccc(Cl)cc2)c2ccccc21 [8-K17, N-[(4-chlorophenyl)methyl]-2-cyano-2-(1-methyl-2-oxo-2,3-dihydro-1H-indol-3-ylidene)acetamide] here?
Its viability at 48 h, 25 µM is 78.3%.

With CC(C)NC(=O)C(C#N)=Cc1ccc(-c2ccccc2F)o1 [8-K18, 2-cyano-3-[5-(2-fluorophenyl)furan-2-yl]-N-(propan-2-yl)prop-2-enamide] as the compound, how does the viability at 48 h, 25 µM read?
Its viability at 48 h, 25 µM is 16%.

Which viability at 48 h, 25 µM does the source give for COc1ccc(C=C(C#N)C(=O)NCc2ccccc2)cc1 [8-K19, N-benzyl-2-cyano-3-(4-methoxyphenyl)prop-2-enamide] here?
The viability at 48 h, 25 µM was 77.3%.

With N#CC(=Cc1ccc(Cl)cc1)C(=O)Nc1ccncc1 [8-K20, 3-(4-chlorophenyl)-2-cyano-N-(pyridin-4-yl)prop-2-enamide] as the compound, how does the viability at 48 h, 25 µM read?
The viability at 48 h, 25 µM was 61.4%.

For N#CC(=Cc1ccccc1OC(F)F)C(=O)Nc1ccccc1F [8-K21, 2-cyano-3-[2-(difluoromethoxy)phenyl]-N-(2-fluorophenyl)prop-2-enamide], which viability at 48 h, 25 µM is on record?
Its viability at 48 h, 25 µM is 82.5%.

For CCc1ccc(NC(=O)C(C#N)=Cc2ccn(-c3ccccc3)n2)cc1 [8-K22, 2-cyano-N-(4-ethylphenyl)-3-(1-phenyl-1H-pyrazol-3-yl)prop-2-enamide], which viability at 48 h, 25 µM is on record?
The viability at 48 h, 25 µM was 36.8%.

For N#CC(C(=O)Nc1ccc2c(c1)OCCO2)=C1N=C(N)c2ccccc21 [8-L03, 2-(3-amino-1H-isoindol-1-ylidene)-2-cyano-N-(2,3-dihydro-1,4-benzodioxin-6-yl)acetamide], which viability at 48 h, 25 µM is on record?
Its viability at 48 h, 25 µM is 83.5%.

Which viability at 48 h, 25 µM does the source give for N#CC(=Cc1cccc(Cl)c1Cl)C(=O)NCc1ccccc1 [8-L04, N-benzyl-2-cyano-3-(2,3-dichlorophenyl)prop-2-enamide] here?
Its viability at 48 h, 25 µM is 13.2%.

Which viability at 48 h, 25 µM does the source give for CC(C)NC(=O)C(C#N)=Cc1ccccc1 [8-L05, 2-cyano-3-phenyl-N-(propan-2-yl)prop-2-enamide] here?
Its viability at 48 h, 25 µM is 104%.

With Cn1cc(C=C(C#N)C(=O)NCc2ccco2)cn1 [8-L06, 2-cyano-N-[(furan-2-yl)methyl]-3-(1-methyl-1H-pyrazol-4-yl)prop-2-enamide] as the compound, how does the viability at 48 h, 25 µM read?
Its viability at 48 h, 25 µM is 89.4%.

For N#CC(=Cc1ccc(F)cc1)C(=O)Nc1ccc(C(=O)O)cc1 [8-L07, 4-[2-cyano-3-(4-fluorophenyl)prop-2-enamido]benzoic acid], which viability at 48 h, 25 µM is on record?
The viability at 48 h, 25 µM was 119%.

With CCCn1c(C)cc(C=C(C#N)C(=O)N2CCC2)c1C [8-L08, 2-(azetidine-1-carbonyl)-3-(2,5-dimethyl-1-propyl-1H-pyrrol-3-yl)prop-2-enenitrile] as the compound, how does the viability at 48 h, 25 µM read?
Its viability at 48 h, 25 µM is 77.4%.

Which viability at 48 h, 25 µM does the source give for C=CCNC(=O)C(C#N)=Cc1cccc(C(F)(F)F)c1 [8-L09, 2-cyano-N-(prop-2-en-1-yl)-3-[3-(trifluoromethyl)phenyl]prop-2-enamide] here?
The viability at 48 h, 25 µM was 96.8%.

Which viability at 48 h, 25 µM does the source give for Cn1cc(C=C(C#N)C(=O)NCCc2ccccc2)cn1 [8-L10, 2-cyano-3-(1-methyl-1H-pyrazol-4-yl)-N-(2-phenylethyl)prop-2-enamide] here?
The viability at 48 h, 25 µM was 101%.

Which viability at 48 h, 25 µM does the source give for Cc1ccc(C)c(NC(=O)C(C#N)=Cc2ccc3c(c2)OCCO3)c1 [8-L11, 2-cyano-3-(2,3-dihydro-1,4-benzodioxin-6-yl)-N-(2,5-dimethylphenyl)prop-2-enamide] here?
The viability at 48 h, 25 µM was 96.2%.

Which viability at 48 h, 25 µM does the source give for COCCNC(=O)C(C#N)=Cc1cccc2ccccc12 [8-L12, 2-cyano-N-(2-methoxyethyl)-3-(naphthalen-1-yl)prop-2-enamide] here?
The viability at 48 h, 25 µM was 91.8%.

Which viability at 48 h, 25 µM does the source give for CC(C)NC(=O)C(C#N)=Cc1ccc(C(F)(F)F)cc1 [8-L13, 2-cyano-N-(propan-2-yl)-3-[4-(trifluoromethyl)phenyl]prop-2-enamide] here?
Its viability at 48 h, 25 µM is 37.8%.

With CC(C)(C)c1ccc(C=C(C#N)C(=O)NCc2ccco2)cc1 [8-L14, 3-(4-tert-butylphenyl)-2-cyano-N-[(furan-2-yl)methyl]prop-2-enamide] as the compound, how does the viability at 48 h, 25 µM read?
Its viability at 48 h, 25 µM is 76.1%.

With CCC1SC(=C(C#N)C(=O)NC)N(c2ccc(Cl)cc2)C1=O (centres unmarked) [8-L15, 2-[3-(4-chlorophenyl)-5-ethyl-4-oxo-1,3-thiazolidin-2-ylidene]-2-cyano-N-methylacetamide] as the compound, how does the viability at 48 h, 25 µM read?
The viability at 48 h, 25 µM was 132%.

With COc1ccc(-c2nn(-c3ccccc3)cc2C=C(C#N)C(N)=O)cc1 [8-L16, 2-cyano-3-[3-(4-methoxyphenyl)-1-phenyl-1H-pyrazol-4-yl]prop-2-enamide] as the compound, how does the viability at 48 h, 25 µM read?
Its viability at 48 h, 25 µM is 109%.

With N#CC(=Cc1cccnc1)C(=O)Nc1cccc2ccccc12 [8-L17, 2-cyano-N-(naphthalen-1-yl)-3-(pyridin-3-yl)prop-2-enamide] as the compound, how does the viability at 48 h, 25 µM read?
The viability at 48 h, 25 µM was 110%.

— PMC11995724, “Antibiotic target discovery by integrated phenotypic and activity-based profiling of electrophilic fragments” (Cell chemical biology, 2025)
